Values joined by “and” are separate entries in the source; they are usually repeats but may differ in a detail not shown here. Equal entries are not always repeated.
Key:
[1] = target: T1, Cav3.1 (Homo sapiens, UniProt O43497); test: FLIPR calcium 5 assay, inhibition of 10 mM Ca-induced fluorescence; assay type: cell-based; details: for IC50: FLIPR concentration-response, HEK293 Cav3.1 cells, read-out: IC50, inhibition of change in fluorescence, Cav3.1; for % Inhibition of Fluorescence Cav3.1: 10 µM compound, 10 mM Ca-induced fluorescence, HEK293 cells, mean ± SEM
T1 construct: expressed in transfected cells; host or cells: HEK293 Flp-In T-REx
T1 sequence (O43497 whole entry): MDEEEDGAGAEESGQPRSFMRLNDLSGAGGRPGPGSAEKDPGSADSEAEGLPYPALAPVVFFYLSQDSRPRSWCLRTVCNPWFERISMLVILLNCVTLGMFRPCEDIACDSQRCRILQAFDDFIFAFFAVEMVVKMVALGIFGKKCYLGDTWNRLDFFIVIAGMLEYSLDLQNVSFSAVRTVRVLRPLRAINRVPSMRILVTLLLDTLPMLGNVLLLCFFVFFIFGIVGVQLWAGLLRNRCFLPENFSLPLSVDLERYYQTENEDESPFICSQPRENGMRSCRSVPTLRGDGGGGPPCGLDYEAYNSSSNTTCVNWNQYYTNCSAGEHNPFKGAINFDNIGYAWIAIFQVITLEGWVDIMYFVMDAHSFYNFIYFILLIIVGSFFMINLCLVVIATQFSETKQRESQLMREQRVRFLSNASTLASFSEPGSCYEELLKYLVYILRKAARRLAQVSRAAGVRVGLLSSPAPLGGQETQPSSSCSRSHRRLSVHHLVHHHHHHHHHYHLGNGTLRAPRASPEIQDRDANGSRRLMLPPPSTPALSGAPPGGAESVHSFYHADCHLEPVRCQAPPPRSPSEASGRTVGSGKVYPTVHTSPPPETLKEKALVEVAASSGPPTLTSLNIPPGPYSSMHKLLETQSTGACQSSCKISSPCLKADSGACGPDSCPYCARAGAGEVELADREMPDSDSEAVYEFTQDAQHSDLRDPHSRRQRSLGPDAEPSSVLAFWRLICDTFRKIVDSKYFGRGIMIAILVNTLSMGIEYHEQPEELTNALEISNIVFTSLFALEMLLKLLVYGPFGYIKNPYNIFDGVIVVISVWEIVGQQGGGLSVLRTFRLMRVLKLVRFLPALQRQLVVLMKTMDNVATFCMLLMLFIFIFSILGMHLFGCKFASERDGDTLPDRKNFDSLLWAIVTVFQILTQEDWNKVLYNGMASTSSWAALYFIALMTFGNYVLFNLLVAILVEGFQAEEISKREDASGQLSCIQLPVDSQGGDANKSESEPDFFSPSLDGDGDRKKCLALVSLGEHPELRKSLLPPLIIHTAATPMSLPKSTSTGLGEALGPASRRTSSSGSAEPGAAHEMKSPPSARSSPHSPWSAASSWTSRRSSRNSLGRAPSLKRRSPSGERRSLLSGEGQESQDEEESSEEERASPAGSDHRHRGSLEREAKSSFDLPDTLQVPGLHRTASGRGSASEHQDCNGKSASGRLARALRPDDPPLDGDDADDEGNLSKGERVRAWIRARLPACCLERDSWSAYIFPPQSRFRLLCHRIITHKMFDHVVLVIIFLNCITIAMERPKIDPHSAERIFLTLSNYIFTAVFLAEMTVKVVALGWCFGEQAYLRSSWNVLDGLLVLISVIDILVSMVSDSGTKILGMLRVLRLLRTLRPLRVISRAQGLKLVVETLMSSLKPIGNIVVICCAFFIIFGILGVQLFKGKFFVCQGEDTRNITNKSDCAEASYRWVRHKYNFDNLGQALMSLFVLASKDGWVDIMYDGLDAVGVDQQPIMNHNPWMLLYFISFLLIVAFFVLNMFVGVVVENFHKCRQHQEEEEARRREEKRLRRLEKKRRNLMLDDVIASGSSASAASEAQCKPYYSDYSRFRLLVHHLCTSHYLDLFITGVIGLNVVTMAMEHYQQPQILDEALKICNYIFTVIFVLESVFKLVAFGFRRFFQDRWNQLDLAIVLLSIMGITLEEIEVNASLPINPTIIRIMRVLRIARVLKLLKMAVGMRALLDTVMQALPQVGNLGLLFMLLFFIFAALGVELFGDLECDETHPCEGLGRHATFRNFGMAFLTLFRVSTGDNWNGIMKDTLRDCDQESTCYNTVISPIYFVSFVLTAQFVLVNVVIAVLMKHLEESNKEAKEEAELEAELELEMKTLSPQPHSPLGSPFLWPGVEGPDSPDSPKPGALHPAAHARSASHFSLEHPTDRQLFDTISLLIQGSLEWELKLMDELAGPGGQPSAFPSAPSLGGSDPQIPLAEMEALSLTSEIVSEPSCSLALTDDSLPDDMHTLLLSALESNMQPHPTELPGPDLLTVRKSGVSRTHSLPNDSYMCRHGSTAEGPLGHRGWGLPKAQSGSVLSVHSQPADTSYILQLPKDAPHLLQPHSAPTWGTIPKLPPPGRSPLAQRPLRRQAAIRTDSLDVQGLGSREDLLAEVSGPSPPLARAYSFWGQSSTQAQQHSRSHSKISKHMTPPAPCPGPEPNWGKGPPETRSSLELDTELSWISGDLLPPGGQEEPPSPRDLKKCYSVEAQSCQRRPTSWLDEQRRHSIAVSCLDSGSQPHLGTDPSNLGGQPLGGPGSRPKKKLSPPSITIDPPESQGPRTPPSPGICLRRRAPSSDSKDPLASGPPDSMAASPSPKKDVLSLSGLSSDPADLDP
Description: (§1) Calcium 5 dye (Molecular Devices, United States ) was used to investigate compound activities at T-type calcium channels using Flexstation III. HEK293 cells overexpressing Cav3.1, Cav 3.2, and Cav 3.3 cells were resuspended in Leibovitz’s L-15 media containing 1% FBS, 1% P/S and 15 mM glucose. 90 µl of the resuspended cells (120,000 cells/well) were plated in a black-walled, 96-well microplate (Corning, NY, United States ) and incubated overnight in humidified air at 37°C. Channel expression was induced with tetracycline (2 μg/ml, Sigma-Aldrich) at plating. On the day of the assay, 90 µl of HBSS containing 5% Calcium dye (bulk kit) and 2.5 mM probenecid (Invitrogen, United States ) was added to each well and incubated for 1 h at 37°C. Change in fluorescence was measured in a FlexStation III plate reader every 2 s (ʎexcitation = 485 nm, ʎemission = 525 nm) for the duration of the experiment at 37°C. After 2 min baseline recording, drugs (20 µL) were added and read for 5 min, followed by 10 mM CaCl2 (20 µl) and read for a further 3 min.
(§2) Unless otherwise stated, five independent experiments were performed for each condition, with each experiment conducted in duplicate. For the calcium assay, change in fluorescence by 10 mM Ca in the presence of drugs was normalised to change in fluorescence caused by 10 mM Ca in the presence of vehicle only to allow for comparison. In the Alphascreen assay, results were normalised to EC80 of ML-186 after subtraction of basal ERK phosphorylation (presence of a vehicle and 0.2% DMSO) to allow for easy comparison between phytocannabinoid activities. We fitted all concentration-response curves to a 4-parameter sigmoidal inhibitory response curve in GraphPad Prism (Version 6 GraphPad Software Inc., CA, United States) to derive IC50 and Emax values. All statistical analyses were conducted with GraphPad Prism. Two-tailed, unpaired t-tests were used to compare two data points and one-way ANOVA for more than two data points with Tukey post-hoc analysis. p-values < 0.05 were considered statistically significant.
(§3) Our investigation of T-type channels began with a single-point screen, as described by [Bladen et al. (2021)]. We screened the inhibitory effect of 10 µM phytocannabinoids on the change in fluorescence elicited by the addition of 10 mM Ca^2+ in cells expressing Cav3.1, Cav3.2 or Cav3.3 channels ([Xie et al., 2007]; [Bladen et al., 2021]).

[2] = target: T2, Cav3.2 (Homo sapiens, UniProt O95180); test: as above; assay type: cell-based; details: FLIPR concentration-response, HEK293 Cav3.2 cells; read-out: IC50, inhibition of change in fluorescence, Cav3.2
T2 construct: expressed in transfected cells; host or cells: HEK293 Flp-In T-REx
Description: as §1, §2, §3

[3] = target: T3, Cav3.3 (Homo sapiens, UniProt Q9P0X4); test: as above; assay type: cell-based; details: 10 µM compound, HEK293 cells, mean ± SEM
T3 construct: expressed in transfected cells; host or cells: HEK293 Flp-In T-REx
T3 sequence (Q9P0X4 whole entry): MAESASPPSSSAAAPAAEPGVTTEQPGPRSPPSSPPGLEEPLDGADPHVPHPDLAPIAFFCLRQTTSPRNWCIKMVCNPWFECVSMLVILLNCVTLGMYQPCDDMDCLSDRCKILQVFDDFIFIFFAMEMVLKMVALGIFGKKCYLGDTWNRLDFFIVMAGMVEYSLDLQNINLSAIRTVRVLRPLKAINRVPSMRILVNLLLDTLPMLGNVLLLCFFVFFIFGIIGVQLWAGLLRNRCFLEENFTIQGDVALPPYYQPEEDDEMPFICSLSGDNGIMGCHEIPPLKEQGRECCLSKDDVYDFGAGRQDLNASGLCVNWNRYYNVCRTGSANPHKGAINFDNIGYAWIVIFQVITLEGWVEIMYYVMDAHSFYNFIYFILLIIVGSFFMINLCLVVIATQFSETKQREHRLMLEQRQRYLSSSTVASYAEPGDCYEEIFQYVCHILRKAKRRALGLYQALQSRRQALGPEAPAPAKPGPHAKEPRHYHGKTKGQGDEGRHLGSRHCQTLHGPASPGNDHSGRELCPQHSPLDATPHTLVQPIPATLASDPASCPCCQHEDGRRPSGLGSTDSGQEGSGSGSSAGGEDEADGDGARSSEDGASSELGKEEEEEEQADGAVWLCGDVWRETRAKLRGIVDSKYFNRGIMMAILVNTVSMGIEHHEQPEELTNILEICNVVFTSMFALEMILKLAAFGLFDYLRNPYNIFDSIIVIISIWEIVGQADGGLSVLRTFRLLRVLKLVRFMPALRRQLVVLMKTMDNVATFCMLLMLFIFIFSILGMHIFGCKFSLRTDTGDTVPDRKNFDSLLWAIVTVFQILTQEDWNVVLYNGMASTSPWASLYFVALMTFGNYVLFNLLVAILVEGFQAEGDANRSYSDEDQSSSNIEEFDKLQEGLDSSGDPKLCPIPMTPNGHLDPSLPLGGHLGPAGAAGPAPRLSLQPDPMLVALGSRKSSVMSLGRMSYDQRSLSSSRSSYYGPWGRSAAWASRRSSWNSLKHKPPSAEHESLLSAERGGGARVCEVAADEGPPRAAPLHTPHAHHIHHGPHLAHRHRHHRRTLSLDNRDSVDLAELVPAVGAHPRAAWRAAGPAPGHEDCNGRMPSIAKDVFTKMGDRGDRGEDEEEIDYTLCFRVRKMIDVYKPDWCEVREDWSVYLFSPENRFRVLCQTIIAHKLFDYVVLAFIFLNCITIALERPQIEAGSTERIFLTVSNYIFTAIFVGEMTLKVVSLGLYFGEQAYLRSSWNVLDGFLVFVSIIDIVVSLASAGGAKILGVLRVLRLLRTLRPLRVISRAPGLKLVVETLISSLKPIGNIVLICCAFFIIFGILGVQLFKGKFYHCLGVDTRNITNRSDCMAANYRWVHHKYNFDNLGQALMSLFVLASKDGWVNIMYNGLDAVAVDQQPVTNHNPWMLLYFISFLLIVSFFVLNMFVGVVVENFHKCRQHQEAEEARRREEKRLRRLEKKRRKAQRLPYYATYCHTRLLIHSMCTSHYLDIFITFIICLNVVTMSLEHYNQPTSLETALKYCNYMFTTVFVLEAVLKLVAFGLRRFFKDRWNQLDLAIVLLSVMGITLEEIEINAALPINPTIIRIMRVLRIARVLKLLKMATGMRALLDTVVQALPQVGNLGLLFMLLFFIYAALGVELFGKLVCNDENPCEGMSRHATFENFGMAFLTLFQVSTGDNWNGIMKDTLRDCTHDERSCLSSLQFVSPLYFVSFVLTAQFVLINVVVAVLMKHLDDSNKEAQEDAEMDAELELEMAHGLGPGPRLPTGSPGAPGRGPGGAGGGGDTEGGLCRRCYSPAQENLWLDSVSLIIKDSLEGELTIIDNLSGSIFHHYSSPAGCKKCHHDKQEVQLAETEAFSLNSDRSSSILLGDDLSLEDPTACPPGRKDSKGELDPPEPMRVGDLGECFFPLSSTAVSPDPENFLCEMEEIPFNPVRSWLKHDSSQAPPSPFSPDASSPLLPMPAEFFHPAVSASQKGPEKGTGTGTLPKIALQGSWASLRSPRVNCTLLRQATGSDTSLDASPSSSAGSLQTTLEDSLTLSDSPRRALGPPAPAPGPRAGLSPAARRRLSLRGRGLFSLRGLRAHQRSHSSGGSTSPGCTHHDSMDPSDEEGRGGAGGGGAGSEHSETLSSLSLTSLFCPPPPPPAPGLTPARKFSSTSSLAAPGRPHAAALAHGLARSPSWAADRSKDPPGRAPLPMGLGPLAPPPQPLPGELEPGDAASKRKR
Description: as §1, §2, §3

[4] = test system: hyperthermia-induced seizures; parameters: method as in earlier work; details: Scn1a+/- mice, ref Anderson et al., 2019, 2021a, 2021b; cited from earlier work
[5] = test system: diacylglycerol lipase; parameters: method as in de Petrocellis et al., 2011; details: ref de Petrocellis et al., 2011; cited from earlier work
[6] = target: T4, GPR55 (Homo sapiens, UniProt Q9Y2T6); test: Alphascreen ERK phosphorylation assay, antagonism of ML-186-induced ERK phosphorylation; assay type: cell-based; details: in the presence of EC80 of ML-186 (0.45 µM), HEK 293 GPR55 cells
T4 construct: expressed in transfected cells; host or cells: HEK 293
T4 sequence (Q9Y2T6 whole entry, species assumed): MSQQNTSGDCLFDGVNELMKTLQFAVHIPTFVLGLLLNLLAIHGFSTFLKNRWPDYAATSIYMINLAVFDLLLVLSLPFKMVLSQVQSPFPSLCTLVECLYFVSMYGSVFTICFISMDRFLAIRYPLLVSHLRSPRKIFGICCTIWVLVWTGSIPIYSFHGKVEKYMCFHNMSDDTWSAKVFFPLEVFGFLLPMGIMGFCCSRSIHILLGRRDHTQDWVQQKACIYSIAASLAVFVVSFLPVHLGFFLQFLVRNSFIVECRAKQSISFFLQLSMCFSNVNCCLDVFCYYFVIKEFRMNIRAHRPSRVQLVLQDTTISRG
Description: as §2

[7] = test system: dorsal root ganglion neurons; parameters: method as in Straiker et al., 2021; details: ref Straiker et al., 2021; cited from earlier work
[8] = target: T1, Cav3.1; test: Whole-cell voltage-clamp electrophysiology in HEK293 Flp-In T-REx cells; assay type: cell-based; details: for V0.5 of voltage dependence of Cav3.1 activation / half-inactivation (V0.5), steady-state inactivation of Cav3.1: 5 µM compound; for Cav3.1 relative current at 50th action potential, % of first / inhibition of Cav3.1 peak current, second test pulse (P2), slow inactivated state / inhibition of Cav3.1 peak current, first test pulse (P1): 5 µM; for inhibition of Cav3.1 peak current, second test pulse (P2), slow inactivated state / inhibition of Cav3.1 peak current, first test pulse (P1): 2-pulse voltage protocol; for inhibition of Cav3.1 peak current, second test pulse (P2), slow inactivated state: after 10 s pre-conditioning pulse to −80 mV; for inhibition of Cav3.1 peak current, first test pulse (P1): before slow inactivation; for IC50: patch clamp, step −100 mV to −30 mV every 12 s, read-out: IC50, tonic inhibition of Cav3.1 current amplitude
Description: All whole-cell voltage-clamp recordings from HEK293 Flp-In T-REx cells stably transfected with human Cav3.1, Cav 3.2 and Cav 3.3 were performed at room temperature. At least 24 h prior to experiments, cells were detached from flasks using trypsin/EDTA and plated into 10 cm sterile tissue culture dishes containing 10 ml of supplemented DMEM and 10–15 glass coverslips (12 mm diameter, ProScitech, QLD, Australia). Culture dishes were then kept overnight in same conditions as flasks to allow cells to adhere to coverslips. They were then transferred to a 30°C/5% CO2 incubator to inhibit cell proliferation until ready to be used for electrophysiology experiments. At this stage, channel expression was induced with tetracycline (2 μg/ml, Sigma-Aldrich) 8–24 h prior to recording cells.
External recording solutions contained (in mM): 114 CsCl, 5 BaCl2, 1 MgCl2, 10 HEPES, 10 glucose, adjusted to pH 7.4 with CsOH. The internal patch pipette solution contained (in mM): 126.5 CsMeSO4, 2 MgCl2, 11 EGTA, 10 HEPES adjusted to pH 7.3 with CsOH. Internal solution was supplemented with 0.6 mM GTP and 2 mM ATP and mixed thoroughly just before use. Liquid junction potentials for the above solutions were calculated before experiments using pClamp 10 software and corrected during experiments. Compounds were prepared daily from 30 mM DMSO stocks and diluted into an external solution just before use. Compounds were then applied rapidly and locally to the cells using a custom-built gravity-driven micro-perfusion system ([Feng et al., 2003]). […] Currents were elicited from a holding potential of -100 mV and were measured by conventional whole-cell patch clamp techniques using an Axopatch 200B amplifier in combination with Clampex 9.2 software. (Molecular Devices, Sunnyvale, CA). After establishing whole cell configuration, cellular capacitance was minimised using the amplifier’s built-in analogue compensation. Series resistance was kept to <10 MΩ and was compensated to at least 85% in all experiments. All data were digitised at 10 kHz with a Digidata 1,320 interface (Molecular Devices) and filtered at 1 kHz (8-pole Bessel filter). Raw and online leak-subtracted data were both collected simultaneously, P/N4 leak subtraction was performed using opposite polarity and after the protocol sweep.
For tonic inhibition of T-type currents, membrane potential was stepped from −100 mV to −30 mV for 200 ms and then allowed to recover for 12 s (1 sweep). A minimum of 10 sweeps were collected under vehicle control external perfusion to allow for control peak current to equilibrate. The drug was then continuously perfused, and sweeps were recorded until no further inhibition was seen (minimum of 3 sweeps with the same amplitude). In current-voltage relation studies, the membrane potential was held at −100 mV and cells were depolarised from −70 to 50 mV in 10 mV increments. For steady-state inactivation studies, a 3.6 s conditioning pre-pulse of various magnitudes (initial holding at −110 mV) was followed by a depolarising pulse to −30 mV. Individual sweeps were separated by 12 s to permit recovery from inactivation between conditioning pulses. The duration of the test pulse was typically 20 ms, and the current amplitude obtained from each test pulse was normalised to that observed at the holding potential of −100 mV.
The effect of CBGVA and CBDVA (5 µM each) on slow inactivation was tested using a 2-pulse voltage protocol as described in Bladen et al., (2021). Briefly, cells expressing Cav3.1 were initially depolarised with a 200 ms test pulse from -120 mV to −30 mV to generate peak current (P1) and followed by a 10 s pre-conditioning pulse to −80 mV to reverse fast inactivation. Cells were further depolarised with another 200 ms test pulse from −120 to −30 mV (P2) (Figure 2 inset).
THC and CBD cause substantial frequency-dependent inhibition of Cav3.2 and Nav1.8 channels, respectively ([Ross et al., 2008]; [Bladen et al., 2021]; [Zhang and Bean, 2021]). […]

[9] = ref Anderson et al., cited from earlier work; for Peak plasma concentration: anticonvulsant doses in mice, 2021b; for brain-plasma ratio: 2019
[10] = Plasma and brain exposure at anticonvulsant doses in mice (literature); assay type: in vivo; details: from peak plasma concentration and brain-plasma ratio
[11] = test system: autaptic hippocampal neurons; parameters: method as in Straiker et al., 2021; details: ref Straiker et al., 2021; cited from earlier work

## C=C(C)[C@@H]1CCC(C)=C[C@H]1c1c(O)cc(CCC)c(C(=O)O)c1O [CBDVA, cannabidivarinic acid]
[1]
  IC50: 2 µM
[2]
  IC50: 11 µM
[3]
  % Inhibition of Fluorescence Cav3.3: 8 ± 4%
[4]
  effect against hyperthermia-induced seizures: anticonvulsant
[5]
  inhibition of diacylglycerol lipase: inhibit the endocannabinoid synthetic enzyme diacylglycerol lipase at a relatively high concentration
[6]
  IC50: 10 µM
[7]
  effect on calcium responses: did not alter calcium responses
[8]
  V0.5 of voltage dependence of Cav3.1 activation: −54.7 ± 1.2 mV
  half-inactivation (V0.5), steady-state inactivation of Cav3.1: −70.9 ± 0.5 mV
  inhibition of Cav3.1 peak current, second test pulse (P2), slow inactivated state: 45 ± 5%
  inhibition of Cav3.1 peak current, first test pulse (P1): 35 ± 5%
  IC50: 7 µM
[8]; 0.4 Hz stimulation
  Cav3.1 relative current at 50th action potential, % of first: 90 ± 1%
[8]; 0.8 Hz stimulation
  Cav3.1 relative current at 50th action potential, % of first: 93 ± 1%
[8]; 2.0 Hz stimulation
  Cav3.1 relative current at 50th action potential, % of first: 83 ± 1%
[9]
  Peak plasma concentration: ~239 µM
  brain-plasma ratio: 2%
[10]
  expected brain concentration: 5 µM
[11]
  effect on excitatory neurotransmission: did not alter excitatory neurotransmission

## CCCCCc1cc(O)c(C/C=C(\C)CCC=C(C)C)c(O)c1C(=O)O [CBGA, cannabigerolic acid]
[4]
  effect against hyperthermia-induced seizures: anticonvulsant

## CCCc1cc(O)c(C/C=C(\C)CCC=C(C)C)c(O)c1C(=O)O [CBGVA, cannabigerovarinic acid]
[1]
  IC50: 6 µM
[2]
  IC50: 2 µM
[3]
  % Inhibition of Fluorescence Cav3.3: 35 ± 11%
[4]
  effect against hyperthermia-induced seizures: anticonvulsant
[6]
  IC50: 8 µM
[8]
  V0.5 of voltage dependence of Cav3.1 activation: −49.1 ± 0.5 mV
  half-inactivation (V0.5), steady-state inactivation of Cav3.1: −82.1 ± 0.8 mV
  inhibition of Cav3.1 peak current, second test pulse (P2), slow inactivated state: 72 ± 3%
  inhibition of Cav3.1 peak current, first test pulse (P1): 61 ± 3%
  IC50: 3 µM
[8]; 0.4 Hz stimulation
  Cav3.1 relative current at 50th action potential, % of first: 73 ± 3%
[8]; 0.8 Hz stimulation
  Cav3.1 relative current at 50th action potential, % of first: 88 ± 1%
[8]; 2.0 Hz stimulation
  Cav3.1 relative current at 50th action potential, % of first: 77 ± 1%
[9]
  Peak plasma concentration: approximately 1,200 µM
  brain-plasma ratio: 4%
[10]
  expected brain concentration: 48 µM

## CCCc1cc(O)c(C/C=C(\C)CCC=C(C)C)c(O)c1 [CBGV]
[1]
  % Inhibition of Fluorescence Cav3.1: < 80% and 51 ± 14%
[3]
  % Inhibition of Fluorescence Cav3.3: 6 ± 3%

## CC(C)[C@H]1c2ccc(F)cc2CC[C@@]1(CCN(C)CCCc1nc2ccccc2[nH]1)OC(=O)C1CC1 [NNC550396, reference compound]
[1]
  % Inhibition of Fluorescence Cav3.1: 82 ± 8%
  IC50: 0.73 µM
[3]
  % Inhibition of Fluorescence Cav3.3: 89 ± 2%

— paper PMC9664070, “The anticonvulsant phytocannabinoids CBGVA and CBDVA inhibit recombinant T-type channels” (Frontiers in Pharmacology, 2022)
